{"source": "ChEMBL document CHEMBL5303573", "about": "“Mapping human microbiome drug metabolism by gut bacteria and their genes” (Nature, 2019)", "key": {"[1]": {"assay": "The drug is tested on Ruminococcus gnavus strain: ATCC29149 for biotransformation. The drug concentrations were measured before and after a 12-h incubation by liquid-chromatography-coupled mass spectrometry (LC–MS)", "settings": "mediterraneibacter gnavus, 2 µM"}, "[2]": {"assay": "The drug is tested on Clostridium ramosum strain: DSM1402 for biotransformation. The drug concentrations were measured before and after a 12-h incubation by liquid-chromatography-coupled mass spectrometry (LC–MS)", "settings": "thomasclavelia ramosa, 2 µM"}, "[3]": {"assay": "The drug is tested on Bacteroides coprophilus strain: DSM18228 for biotransformation. The drug concentrations were measured before and after a 12-h incubation by liquid-chromatography-coupled mass spectrometry (LC–MS)", "settings": "2 µM"}, "[4]": {"assay": "The drug is tested on Providencia stuartii strain: ATCC25827 for biotransformation. The drug concentrations were measured before and after a 12-h incubation by liquid-chromatography-coupled mass spectrometry (LC–MS)", "settings": "2 µM"}, "[5]": {"assay": "The drug is tested on Enterococcus faecalis strain: V583 for biotransformation. The drug concentrations were measured before and after a 12-h incubation by liquid-chromatography-coupled mass spectrometry (LC–MS)", "settings": "2 µM"}, "[6]": {"assay": "The drug is tested on Clostridium scindens strain: ATCC35704 for biotransformation. The drug concentrations were measured before and after a 12-h incubation by liquid-chromatography-coupled mass spectrometry (LC–MS)", "settings": "2 µM"}, "[7]": {"assay": "The drug is tested on Bacteroides fragilis strain: ATCC43859 for biotransformation. The drug concentrations were measured before and after a 12-h incubation by liquid-chromatography-coupled mass spectrometry (LC–MS)", "settings": "2 µM"}, "[8]": {"settings": "bacteroides thetaiotaomicron, 12 h, 2 µM", "description": "The drug is tested on Bacteroides thetaiotaomicron strain: 3731 for biotransformation. The drug concentrations were measured before and after a 12-h incubation by liquid-chromatography-coupled mass spectrometry (LC–MS)"}, "[9]": {"assay": "The drug is tested on Eubacterium hallii strain: DSM3353 for biotransformation. The drug concentrations were measured before and after a 12-h incubation by liquid-chromatography-coupled mass spectrometry (LC–MS)", "settings": "anaerobutyricum hallii, 2 µM"}, "[10]": {"settings": "bifidobacterium adolescentis, 12 h, 2 µM", "description": "The drug is tested on Bifidobacterium adolescentis strain: ATCC 15703 for biotransformation. The drug concentrations were measured before and after a 12-h incubation by liquid-chromatography-coupled mass spectrometry (LC–MS)"}, "[11]": {"assay": "The drug is tested on Collinsella aerofaciens strain: ATCC25986 for biotransformation. The drug concentrations were measured before and after a 12-h incubation by liquid-chromatography-coupled mass spectrometry (LC–MS)", "settings": "2 µM"}, "[12]": {"assay": "The drug is tested on Escherichia coli strain: BW25113 for biotransformation. The drug concentrations were measured before and after a 12-h incubation by liquid-chromatography-coupled mass spectrometry (LC–MS)", "settings": "2 µM"}, "[13]": {"assay": "The drug is tested on Ruminococcus lactaris strain: ATCC29176 for biotransformation. The drug concentrations were measured before and after a 12-h incubation by liquid-chromatography-coupled mass spectrometry (LC–MS)", "settings": "2 µM"}, "[14]": {"assay": "The drug is tested on Clostridium sporogenes strain: ATCC15579 for biotransformation. The drug concentrations were measured before and after a 12-h incubation by liquid-chromatography-coupled mass spectrometry (LC–MS)", "settings": "2 µM"}, "[15]": {"assay": "The drug is tested on Parabacteroides merdae strain: ATCC43184 for biotransformation. The drug concentrations were measured before and after a 12-h incubation by liquid-chromatography-coupled mass spectrometry (LC–MS)", "settings": "2 µM"}, "[16]": {"assay": "The drug is tested on Eubacterium ventriosum strain: ATCC27560 for biotransformation. The drug concentrations were measured before and after a 12-h incubation by liquid-chromatography-coupled mass spectrometry (LC–MS)", "type": "ADME", "set-up": "dose 2 uM, timepoint 0 vs 12 hours", "settings": "2 µM"}, "[17]": {"settings": "enterocloster bolteae, 12 h, 2 µM", "description": "The drug is tested on Clostridium bolteae strain: ATCCBAA-613 for biotransformation. The drug concentrations were measured before and after a 12-h incubation by liquid-chromatography-coupled mass spectrometry (LC–MS)"}, "[18]": {"settings": "parabacteroides johnsonii, 12 h, 2 µM", "description": "The drug is tested on Parabacteroides johnsonii strain: DSM18315 for biotransformation. The drug concentrations were measured before and after a 12-h incubation by liquid-chromatography-coupled mass spectrometry (LC–MS)"}, "[19]": {"settings": "bacteroides fragilis, 12 h, 2 µM", "description": "The drug is tested on Bacteroides fragilis strain: NCTC 9343 for biotransformation. The drug concentrations were measured before and after a 12-h incubation by liquid-chromatography-coupled mass spectrometry (LC–MS)"}}}
{"smiles": "COc1ccc(Cc2nccc3cc(OC)c(OC)cc23)cc1OC", "note": "[PAPAVERINE]", "values": [{"measurement": "Bacterial Biotransformation", "setting": "[1]", "value": "Compound NOT metabolized"}, {"measurement": "Bacterial Biotransformation", "setting": "[2]", "value": "Compound NOT metabolized"}, {"measurement": "Bacterial Biotransformation", "setting": "[3]", "value": "Compound NOT metabolized"}, {"measurement": "Bacterial Biotransformation", "setting": "[4]", "value": "Compound NOT metabolized"}, {"measurement": "Bacterial Biotransformation", "setting": "[5]", "value": "Compound NOT metabolized"}, {"measurement": "Bacterial Biotransformation", "setting": "[6]", "value": "Compound NOT metabolized"}, {"measurement": "Bacterial Biotransformation", "setting": "[7]", "value": "Compound NOT metabolized"}, {"measurement": "Bacterial Biotransformation", "setting": "[8]", "value": "Compound NOT metabolized"}, {"measurement": "Bacterial Biotransformation", "setting": "[9]", "value": "Compound NOT metabolized"}, {"measurement": "Bacterial Biotransformation", "setting": "[10]", "value": "Compound NOT metabolized"}, {"measurement": "Bacterial Biotransformation", "setting": "[11]", "value": "Compound NOT metabolized"}, {"measurement": "Bacterial Biotransformation", "setting": "[12]", "value": "Compound NOT metabolized"}, {"measurement": "Bacterial Biotransformation", "setting": "[13]", "value": "Compound NOT metabolized"}, {"measurement": "Bacterial Biotransformation", "setting": "[14]", "value": "Compound NOT metabolized"}, {"measurement": "Bacterial Biotransformation", "setting": "[15]", "value": "Compound NOT metabolized"}, {"measurement": "Bacterial Biotransformation", "setting": "[16]", "value": "Compound NOT metabolized"}, {"measurement": "Bacterial Biotransformation", "setting": "[17]", "value": "Compound NOT metabolized"}]}
{"smiles": "C=CCN1CC[C@]23c4c5ccc(O)c4O[C@H]2C(=O)CC[C@@]3(O)[C@H]1C5", "note": "[NALOXONE]", "values": [{"measurement": "Bacterial Biotransformation", "setting": "[1]", "value": "Compound NOT metabolized"}, {"measurement": "Bacterial Biotransformation", "setting": "[2]", "value": "Compound NOT metabolized"}, {"measurement": "Bacterial Biotransformation", "setting": "[18]", "value": "Compound metabolized"}, {"measurement": "Bacterial Biotransformation", "setting": "[3]", "value": "Compound metabolized"}, {"measurement": "Bacterial Biotransformation", "setting": "[4]", "value": "Compound NOT metabolized"}, {"measurement": "Bacterial Biotransformation", "setting": "[7]", "value": "Compound metabolized"}, {"measurement": "Bacterial Biotransformation", "setting": "[19]", "value": "Compound metabolized"}, {"measurement": "Bacterial Biotransformation", "setting": "[8]", "value": "Compound metabolized"}, {"measurement": "Bacterial Biotransformation", "setting": "[9]", "value": "Compound NOT metabolized"}, {"measurement": "Bacterial Biotransformation", "setting": "[10]", "value": "Compound metabolized"}, {"measurement": "Bacterial Biotransformation", "setting": "[11]", "value": "Compound NOT metabolized"}, {"measurement": "Bacterial Biotransformation", "setting": "[12]", "value": "Compound NOT metabolized"}, {"measurement": "Bacterial Biotransformation", "setting": "[13]", "value": "Compound NOT metabolized"}, {"measurement": "Bacterial Biotransformation", "setting": "[14]", "value": "Compound metabolized"}, {"measurement": "Bacterial Biotransformation", "setting": "[16]", "value": "Compound NOT metabolized"}, {"measurement": "Bacterial Biotransformation", "setting": "[17]", "value": "Compound NOT metabolized"}]}
{"smiles": "CCC(C)n1ncn(-c2ccc(N3CCN(c4ccc(OCC5COC(Cn6cncn6)(c6ccc(Cl)cc6Cl)O5)cc4)CC3)cc2)c1=O", "note": "(stereo unspecified) [ITRACONAZOLE]", "values": [{"measurement": "Bacterial Biotransformation", "setting": "[1]", "value": "Compound NOT metabolized"}, {"measurement": "Bacterial Biotransformation", "setting": "[2]", "value": "Compound NOT metabolized"}, {"measurement": "Bacterial Biotransformation", "setting": "[18]", "value": "Compound NOT metabolized"}, {"measurement": "Bacterial Biotransformation", "setting": "[3]", "value": "Compound NOT metabolized"}, {"measurement": "Bacterial Biotransformation", "setting": "[4]", "value": "Compound NOT metabolized"}, {"measurement": "Bacterial Biotransformation", "setting": "[5]", "value": "Compound NOT metabolized"}, {"measurement": "Bacterial Biotransformation", "setting": "[6]", "value": "Compound NOT metabolized"}, {"measurement": "Bacterial Biotransformation", "setting": "[7]", "value": "Compound NOT metabolized"}, {"measurement": "Bacterial Biotransformation", "setting": "[19]", "value": "Compound NOT metabolized"}, {"measurement": "Bacterial Biotransformation", "setting": "[8]", "value": "Compound NOT metabolized"}, {"measurement": "Bacterial Biotransformation", "setting": "[9]", "value": "Compound NOT metabolized"}, {"measurement": "Bacterial Biotransformation", "setting": "[10]", "value": "Compound NOT metabolized"}, {"measurement": "Bacterial Biotransformation", "setting": "[11]", "value": "Compound NOT metabolized"}, {"measurement": "Bacterial Biotransformation", "setting": "[12]", "value": "Compound NOT metabolized"}, {"measurement": "Bacterial Biotransformation", "setting": "[13]", "value": "Compound NOT metabolized"}, {"measurement": "Bacterial Biotransformation", "setting": "[14]", "value": "Compound NOT metabolized"}, {"measurement": "Bacterial Biotransformation", "setting": "[15]", "value": "Compound NOT metabolized"}, {"measurement": "Bacterial Biotransformation", "setting": "[16]", "value": "Compound NOT metabolized"}, {"measurement": "Bacterial Biotransformation", "setting": "[17]", "value": "Compound NOT metabolized"}]}
{"smiles": "CCN(CC)CCNC(=O)c1cc(Cl)c(N)cc1OC", "note": "[METOCLOPRAMIDE]", "values": [{"measurement": "Bacterial Biotransformation", "setting": "[1]", "value": "Compound NOT metabolized"}, {"measurement": "Bacterial Biotransformation", "setting": "[2]", "value": "Compound NOT metabolized"}, {"measurement": "Bacterial Biotransformation", "setting": "[18]", "value": "Compound NOT metabolized"}, {"measurement": "Bacterial Biotransformation", "setting": "[3]", "value": "Compound NOT metabolized"}, {"measurement": "Bacterial Biotransformation", "setting": "[4]", "value": "Compound NOT metabolized"}, {"measurement": "Bacterial Biotransformation", "setting": "[5]", "value": "Compound NOT metabolized"}, {"measurement": "Bacterial Biotransformation", "setting": "[6]", "value": "Compound NOT metabolized"}, {"measurement": "Bacterial Biotransformation", "setting": "[7]", "value": "Compound NOT metabolized"}, {"measurement": "Bacterial Biotransformation", "setting": "[19]", "value": "Compound NOT metabolized"}, {"measurement": "Bacterial Biotransformation", "setting": "[8]", "value": "Compound NOT metabolized"}, {"measurement": "Bacterial Biotransformation", "setting": "[9]", "value": "Compound NOT metabolized"}, {"measurement": "Bacterial Biotransformation", "setting": "[10]", "value": "Compound NOT metabolized"}, {"measurement": "Bacterial Biotransformation", "setting": "[11]", "value": "Compound NOT metabolized"}, {"measurement": "Bacterial Biotransformation", "setting": "[12]", "value": "Compound NOT metabolized"}, {"measurement": "Bacterial Biotransformation", "setting": "[13]", "value": "Compound NOT metabolized"}, {"measurement": "Bacterial Biotransformation", "setting": "[14]", "value": "Compound NOT metabolized"}, {"measurement": "Bacterial Biotransformation", "setting": "[15]", "value": "Compound NOT metabolized"}, {"measurement": "Bacterial Biotransformation", "setting": "[16]", "value": "Compound NOT metabolized"}, {"measurement": "Bacterial Biotransformation", "setting": "[17]", "value": "Compound NOT metabolized"}]}
